{
  "source": "patent US20090156666A1",
  "about": "“NOVEL COMPOSITIONS AND USE THEREOF FOR THE TREATMENT, CO-TREATMENT OR PREVENTION OF INFLAMMATORY DISORDERS” (priority 2007, published 2009)",
  "key": {"[1]": {"test_system": "human aggrecan", "test": "Gene expression (mRNA, RT-PCR) in normal human chondrocytes: aggrecan", "type": "cell-based", "settings": "50 μmol/L; 4 hrs; % of unstimulated cells (100%)", "method": "(§1) The effect of a MA/HO (1:3 w/w) mixture in combination with glucosamine was tested on the expression of human aggrecan, collagen I, collagen II, or chondrocyte transcription factors (SOX-6, -9) in vitro in normal human chondrocytes (derived from knee) (CC-2550; Cambrex, respectively). A control experiment without the compounds was done concomitantly to compare the expression of these genes (percentage expression of gene in controls was set to 100%). […] The level of mRNA was determined by RT-PCR (Richard et al. Mol. Nutr. Food Res. 49, 431-442, 2005) and expressed relative to the level observed in cells cultured without the substances. The given values indicate the level of gene expression (in % of unstimulated cells [set at 100%] for anabolic and anti-catabolic genes; in % of IL1β-treated cells [set at 100%], for catabolic genes). […] Yet, when combined the observed increase in gene expression exceeded the expected one reflecting synergism."}, "[2]": {"test_system": "ADAMTS-4", "test": "Gene expression (mRNA, RT-PCR) in normal human chondrocytes: ADAMTS-4 (catabolic)", "type": "cell-based", "settings": "50 μmol/L; unstim. 4 d; % of control (100%)", "source_text": "Catabolic events are controlled by the expression of genes, e.g. those genes that encode matrix metalloproteinases (MMPs) that eventually break down collagen or proteoglycans (ADAMTS-4, -5). Of the MMPs, MMP-1 and MMP-3 have a major role in breaking down the ECM in cartilage degradation. Some genes including TIMPS-1 (tissue-inhibitor of MMPs) have anti-catabolic effects and thus contribute to prevention of tissue erosion. The effect of a MA/HO (1:3 w/w) mixture in combination with glucosamine was tested on the expression of human aggrecan, collagen I, collagen II, or chondrocyte transcription factors (SOX-6, -9) in vitro in normal human chondrocytes (derived from knee) (CC-2550; Cambrex, respectively). A control experiment without the compounds was done concomitantly to compare the expression of these genes (percentage expression of gene in controls was set to 100%). […] The level of mRNA was determined by RT-PCR (Richard et al. Mol. Nutr. Food Res. 49, 431-442, 2005) and expressed relative to the level observed in cells cultured without the substances. […] […] Yet, when combined the observed increase in gene expression exceeded the expected one reflecting synergism."}, "[3]": {"test_system": "collagen II", "test": "Gene expression (mRNA, RT-PCR) in normal human chondrocytes: collagen II", "type": "cell-based", "settings": "50 μmol/L; 4 hrs; % of unstimulated cells (100%)", "method": "as §1"}, "[4]": {"test_system": "MMP-9", "test": "Gene expression (mRNA, RT-PCR) in normal human chondrocytes: MMP-9 (catabolic)", "type": "cell-based", "settings": "50 μmol/L; stim. 4 hrs; % of IL1β-treated cells (100%)", "source_text": "(§2) Catabolic events are controlled by the expression of genes, e.g. those genes that encode matrix metalloproteinases (MMPs) that eventually break down collagen or proteoglycans (ADAMTS-4, -5). Of the MMPs, MMP-1 and MMP-3 have a major role in breaking down the ECM in cartilage degradation. Some genes including TIMPS-1 (tissue-inhibitor of MMPs) have anti-catabolic effects and thus contribute to prevention of tissue erosion. The effect of a MA/HO (1:3 w/w) mixture in combination with glucosamine was tested on the expression of human aggrecan, collagen I, collagen II, or chondrocyte transcription factors (SOX-6, -9) in vitro in normal human chondrocytes (derived from knee) (CC-2550; Cambrex, respectively). A control experiment without the compounds was done concomitantly to compare the expression of these genes (percentage expression of gene in controls was set to 100%). […] The level of mRNA was determined by RT-PCR (Richard et al. Mol. Nutr. Food Res. 49, 431-442, 2005) and expressed relative to the level observed in cells cultured without the substances. The given values indicate the level of gene expression (in % of unstimulated cells [set at 100%] for anabolic and anti-catabolic genes; in % of IL1β-treated cells [set at 100%], for catabolic genes). […] Yet, when combined the observed increase in gene expression exceeded the expected one reflecting synergism."}, "[5]": {"test_system": "collagen I", "test": "Gene expression (mRNA, RT-PCR) in normal human chondrocytes: collagen I", "type": "cell-based", "settings": "50 μmol/L; 4 hrs; % of unstimulated cells (100%)", "method": "as §1"}, "[6]": {"test_system": "TMP-I", "test": "Gene expression (mRNA, RT-PCR) in normal human chondrocytes: TMP-I (anti-catabolic)", "type": "cell-based", "settings": "50 μmol/L; 4 hrs; % of unstimulated cells (100%)", "source_text": "as §2"}, "[7]": {"test_system": "nitric oxide (NO) synthesis in RAW264.7 cells", "test": "Inhibition of nitric oxide synthesis in LPS-stimulated RAW264.7 macrophages (Griess reaction)", "type": "cell-based, murine", "settings": "single substances"}},
  "note": "pIC50: −log10 of the molar value.",
  "data": [
    {"compound": "N[C@H]1C(O)O[C@H](CO)[C@@H](O)[C@@H]1O.O=S(=O)(O)O", "note": "(some centres unmarked) [Glucosamine sulfate, glucosamine sulfate]", "values": [
      {"measurement": "Aggrecan gene expression level", "setting": "[1]", "result": 81, "unit": "%"},
      {"measurement": "ADAMTS-4 gene expression level", "setting": "[2]", "result": 101, "unit": "%"},
      {"measurement": "Collagen II gene expression level", "setting": "[3]", "result": 154, "unit": "%"},
      {"measurement": "MMP-9 gene expression level", "setting": "[4]", "result": 114, "unit": "%"},
      {"measurement": "Collagen 1 gene expression level", "setting": "[5]", "result": 121, "unit": "%"},
      {"measurement": "TMP-I gene expression level", "setting": "[6]", "result": 110, "unit": "%"},
      {"measurement": "anti-inflammatory activity (in words)", "setting": "[7]; LPS-stimulated, nitric oxide", "result": "marginal anti-inflammatory"},
      {"measurement": "pIC50", "setting": "[7]; Mus musculus, LPS 1 μg/ml, 24 hours", "result": "< 4.00"}
    ]}
  ]
}
